Source: patent US9814732B2, “Ulipristal acetate for prevention and treatment of breast tumors” (LABORATOIRE HRA-PHARMA, priority 2012, dated 2017)

How the values were obtained:
GR = target: T1, GR (Homo sapiens, UniProt P04150); experiment: GRE-Luc reporter gene transactivation in HBE cells; type: cell-based; conditions: DEX 100 nM, test compound 100 nM, read-out: inhibition of DEX induced luciferase transactivation (GRE-Luc)
T1 sequence (P04150 1-777): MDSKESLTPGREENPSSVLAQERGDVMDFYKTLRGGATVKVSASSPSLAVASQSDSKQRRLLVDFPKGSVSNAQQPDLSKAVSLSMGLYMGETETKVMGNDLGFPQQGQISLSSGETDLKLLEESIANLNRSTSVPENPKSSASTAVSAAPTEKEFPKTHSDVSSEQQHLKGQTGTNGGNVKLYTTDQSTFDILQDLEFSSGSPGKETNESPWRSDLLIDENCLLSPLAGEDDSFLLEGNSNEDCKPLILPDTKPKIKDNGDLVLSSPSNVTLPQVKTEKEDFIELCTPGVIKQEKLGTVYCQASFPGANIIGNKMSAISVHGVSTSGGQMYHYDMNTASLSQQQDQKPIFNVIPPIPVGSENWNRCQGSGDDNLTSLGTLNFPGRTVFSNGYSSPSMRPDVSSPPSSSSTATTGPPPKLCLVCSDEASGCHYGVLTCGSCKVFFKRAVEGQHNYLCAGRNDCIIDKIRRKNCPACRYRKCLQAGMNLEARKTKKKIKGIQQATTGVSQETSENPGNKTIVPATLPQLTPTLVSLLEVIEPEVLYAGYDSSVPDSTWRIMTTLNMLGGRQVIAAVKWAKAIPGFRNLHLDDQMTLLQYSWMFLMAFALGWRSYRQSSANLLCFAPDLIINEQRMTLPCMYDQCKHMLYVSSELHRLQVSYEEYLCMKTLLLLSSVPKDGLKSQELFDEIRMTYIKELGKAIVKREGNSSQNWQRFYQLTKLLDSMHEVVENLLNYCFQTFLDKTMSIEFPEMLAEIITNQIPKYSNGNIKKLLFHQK

T-47D cells = experiment: Tritiated thymidine incorporation (proliferation) in T-47D cells; type: cell-based, human; conditions: 48 h
Procedure: (§1) After seeding, cells were cultured for 24 h in serum and phenol red free medium. Then treatments were carried out in a phenol red free medium containing 5% dextran-charcoal stripped serum. Cells were treated with P or DEX (100 nM), alone or in combination with UPA, RU (1 nM to 1 μM) or CDB-3877 (100 nM). Control cells were treated with ethanol, at […] 1:1000 final ethanol concentration alone as vehicle or E2 (10 nM).
(§2) After 24 h of hormonal treatment, cells were incubated with [methyl-1 3H] thymidine (Perkin Elmer, Courtaboeuf, France) for 48 h or 20 h for KBE or cancer cells, respectively at 37° C. After incubation cells were washed twice with PBS 1× and once with 5% trichloroacetic acid (TCA). Cells were incubated in 5% TCA for 15 min at 4° C. and lysed in NaOH 0.1 N for 30 min at 37° C. The total cell lysate was added to 5 ml of Ecolite scintillation liquid (MP biomedical, Illkirch, France) and radioactivity was counted with a β-counter HIDEX 300SL (ScienceTec, Courtaboeuf, France).

MCF-7 cells [1] = experiment: Tritiated thymidine incorporation (proliferation) in MCF-7 cells; type: cell-based, human; conditions: 48 h
Procedure: as §1, §2

HBE cells = experiment: Apoptosis, sub-G1 quantification by flow cytometry in HBE cells; type: cell-based, human; conditions: 96 h
Procedure: as §1
(§3) After 96 h or 48 h of hormonal treatment, respectively, for HBE or MCF-7 and T-47D cells, cells were washed in PBS, matrix dissociated with accutase enzyme (PAA laboratory, Les Mureaux, France), and centrifuged 5 minutes at 1350 rpm. Cells were fixed and frozen at −20° C. in 70% ethanol. Before analysis, cells were washed in PBS and stained with 10 μg/ml propidium iodide in PBS (containing 0.835 U/ml RNase A) (Sigma, St Quentin Fallavier, France). For each sample at least 10 000 cells were counted in a BD LSR II flow cytometer (BD Biosciences, Le Pont de Claix, France). After gating out doublets and debris, cycle distribution was analyzed using the ModFit LT software (Verity Software House, USA).

MCF-7 cells [2] = experiment: Apoptosis, sub-G1 quantification by flow cytometry in MCF-7 cells; type: cell-based, human; conditions: 48 h
Procedure: as §1, §3

CC(=O)O[C@]1(C(C)=O)CCC2C3CCC4=CC(=O)CCC4=C3[C@@H](c3ccc(N(C)C)cc3)C[C@@]21C (stereo partly shown) [UPA, 17[…]-acetoxy-11[…]-[4-N,N-dimethylamino-phenyl)-19-norpregna-4,9-diene-3,20-dione]
inhibition at 0.1 µM (GR): 41.3 ± 5.8% | cell proliferation ([3H] thymidine incorporation), compound alone (T-47D cells; 100 nM): had no effect on proliferation | effect of UPA on P-mediated proliferation change (T-47D cells; P 100 nM + UPA 100 nM): reversed P anti-proliferative activity | cell proliferation ([3H] thymidine incorporation), compound alone (MCF-7 cells [1]; 100 nM): had no effect on proliferation | effect of UPA on DEX-mediated proliferation change (MCF-7 cells [1]; DEX 100 nM + UPA 100 nM): tended to prevent the weak anti-proliferative effects of DEX | cell apoptosis (sub-G1 percentage), compound alone (HBE cells; 100 nM): had no apoptotic or survival properties by itself | effect of UPA on DEX-mediated anti-apoptotic effect (HBE cells; DEX 100 nM + UPA 100 nM): both hormones activities were reversed | effect of UPA on P-mediated apoptosis (HBE cells; P 100 nM + UPA 100 nM): both hormones activities were reversed | cell apoptosis (sub-G1 percentage), compound alone (MCF-7 cells [2]; 100 nM): had no apoptotic or survival properties by itself | effect of UPA on DEX-mediated apoptosis (MCF-7 cells [2]; DEX 100 nM + UPA 100 nM): totally inhibited by UPA
